Measurements taken from patent US6916925B1, “Dye labeled imidazoquinoline compounds” (3M Innovative Properties Co., priority 1999, dated 2005).

Key:
[1] = test system: human peripheral blood mononuclear cells; experiment: Flow Cytometry Analysis: binding to mononuclear cells by fluorescence; format: cell-based; details: for binding to human peripheral blood mononuclear cells (fluorescence intensity histogram): FACScan flow cytometer
Procedure: Whole blood was collected by venipuncture into EDTA vacutainer tubes from healthy human donors. PBMCs were separated from whole blood by ficoll hypaque (Sigma Chemicals, St. Louis, Mo.) density gradient centrifugation as described in Testerman. The PBMCs were suspended at 2×10^6 cells/mL in RPMI 1640 medium containing 10% fetal bovine serum, 2 mM L-glutamine and penicillin/streptomycin solution (RPMI complete). […] Following incubation the cells were washed two times with staining buffer (Dulbecco's Phosphate Buffered Saline without calcium and magnesium, 1% heat inactivated fetal bovine serum, and 0.1% sodium azide). The cells were suspended in staining buffer and transferred to 12×75 mm polystyrene tubes for analysis by flow cytometry. Binding to mononuclear cells was determined by fluorescence using a FACScan flow cytometer (purchased from Becton Dickinson).
The histograms of FIGS. 1 and 2 plot the fluorescence intensity with the more highly fluorescent cell populations being seen further to the right. The peak area labeled as M3 in the histograms indicates the fluorescence binding to the monocyte population in the peripheral blood mononuclear cells.

[2] = test system: Peripheral blood mononuclear cells (PBMCs); experiment: Cytokine Induction in Human Cells, Test Method 1 (IFN by A549/encephalomyocarditis bioassay, TNF by ELISA); format: cell-based; details: 24 hours
Text: An in vitro human blood cell system is used to assess cytokine induction by compounds of the invention. Activity is based on the measurement of interferon and tumor necrosis factor (α) (IFN and TNF, respectively) secreted into culture media as described by Testerman et. al. in “Cytokine Induction by the Immunomodulators Imiquimod and S27609”, Journal of Leukocyte Biology, 58, 365-372 (September, 1995).
Whole blood from healthy human donors is collected by venipuncture into EDTA vacutainer tubes. Peripheral blood mononuclear cells (PBMCs) are separated from whole blood by Histopaque®-1077 (Sigma Chemicals, St. Louis, Mo.) density gradient centrifugation. The PBMCs are washed twice with Hank's Balanced Salts Solution (Sigma) and are then suspended at 2×10^6 cells/mL in RPMI 1640 medium containing 10% fetal bovine serum, 2 mM L-glutamine and 1% penicillin/streptomycin solution (RPMI complete). 1 mL portions of PBMC suspension are added to 12 or 24 well flat bottom sterile tissue culture plates.
The compounds are solubilized in ethanol, dimethyl sulfoxide or pyrogen free water then diluted with tissue culture water, 0.01N sodium hydroxide or 0.01N hydrochloric acid (The choice of solvent will depend on the chemical characteristics of the compound being tested.). Ethanol or DMSO concentration should not exceed a final concentration of 1% for addition to the culture wells. The compounds are generally tested using a concentration range from about 0.01 μg/mL to about 50 μg/mL.
The solution of test compound is added to the wells containing 1 ml of PBMCs in media. The plates are covered with plastic lids, mixed gently and then incubated for 24 hours at 37° C. with a 5% carbon dioxide atmosphere.
Following incubation the cell-free culture supernatant is removed with a sterile polypropylene pipet and transferred to a 12×75 mm polypropylene tube. The tubes are then centrifuged at 1000 rpm ([…]) for 10 to 15 minutes at 4° C. The supernatant is removed and placed into 2 mL sterile freezing vials. Samples are maintained at −70° C. until analyzed for cytokines.
Interferon concentrations are determined by bioassay using A549 human lung carcinoma cells challenged with encephalomyocarditis. The details of the bioassay method have been described by G. L. Brennan and L. H. Kronenberg in “Automated Bioassay of Interferons in Micro-test Plates”, Biotechniques, June/July, 78, 1983, incorporated herein by reference. Briefly stated the method is as follows: A549 cells are incubated with dilutions of IFN standard or test samples at 37° C. for 24 hours. The incubated cells are then infected with an inoculum of encephalomyocarditis virus. The infected cells are incubated for an additional 24 hours at 37° C. before quantifying for viral cytopathic effect. The viral cytopathic effect is quantified by staining of the wells with a vital dye such as crystal violet followed by visual scoring of the plates. Results are expressed as alpha reference units/mL based on the value obtained for an NIH Human Leukocyte IFN standard.
Tumor necrosis factor (α) (TNF) concentration is determined using an ELISA kit available from Genzyrne, Cambridge, Mass. The results are expressed as pg/ml.
The labeled compound of Example 1 and the unlabeled intermediate (2-(4-amino-2-ethoxymethyl-1H-imidazo[4,5-c]quinolin-1-yl)ethaneamine trihydrochloride) were tested side by side for their ability to induce cytokine biosynthesis using Test Method 1 described above. The compound of Example 1 was solubilized in ethanol. The unlabeled intermediate was solubilized in tissue culture water.

[3] = test system: Peripheral blood mononuclear cells (PBMCs); experiment: Cytokine Induction in Human Cells, Test Method 2 (IFN-α and TNF-α by ELISA); format: cell-based; design: key: +: indicates that the compound induced the indicated cytokine at that particular concentration; −: indicates that the compound did not induce the indicated cytokine at that particular concentration; details: 18 to 24 hours
Text: An in vitro human blood cell system is used to assess cytokine induction. Activity is based on the measurement of interferon and tumor necrosis factor (α) (IFN and TNF, respectively) secreted into culture media as described by Testerman et. al. In “Cytokine Induction by the Immunomodulators Imiquimod and S-27609”, Journal of Leukocyte Biology, 58, 365-372 (September, 1995).
Whole blood from healthy human donors is collected by venipuncture into EDTA vacutainer tubes. Peripheral blood mononuclear cells (PBMCs) are separated from whole blood by density gradient centrifugation using Histopaque®-1077. The PBMCs are washed twice with -Hank's Balanced Salts Solution and then are suspended at 3-4×10^6 cells/mL in RPMI complete. The PBMC suspension is added to 48 well flat bottom sterile tissue culture plates (Costar, Cambridge, Mass. or Becton Dickinson Labware, Lincoln Park, N.J.) containing an equal volume of RPMI complete media containing test compound.
The compounds are solubilized in dimethyl sulfoxide (DMSO). The DMSO concentration should not exceed a final concentration of 1% for addition to the culture wells. The compounds are generally tested at concentrations ranging from 0.12 to 30 μM.
The solution of test compound is added at 60 μM to the first well containing RPMI complete and serial 3 fold dilutions are made in the wells. The PBMC suspension is then added to the wells in an equal volume, bringing the test compound concentrations to the desired range (0.12 to 30 μM). The final concentration of PBMC suspension is 1.5-2×10^6 cells/mL. The plates are covered with sterile plastic lids, mixed gently and then incubated for 18 to 24 hours at 37° C. in a 5% carbon dioxide atmosphere.
Following incubation the plates are centrifuged for 5-10 minutes at 1000 rpm (˜200×g) at 4° C. The cell-free culture supernatant is removed with a sterile polypropylene pipet and transferred to sterile polypropylene tubes. Samples are maintained at −30 to −70° C. until analysis. The samples are analyzed for interferon (α) and for tumor necrosis factor (α) by ELISA
Interferon (α) concentration is determined by ELISA using a Human Multi-Species kit from PBL Biomedical Laboratories, New Brunswick, N.J. Results are expressed in pg/mL.
Tumor necrosis factor (α) (TNF)concentration is determined using ELISA kits available from Genzyme, Cambridge, Mass.; R&D Systems, Minneapolis, Minn.; or Phanningen, San Diego, Calif. Results are expressed in pg/mL.
The labeled compounds of Examples 2 and 3 were tested for their ability to induce cytokine biosynthesis using Test Method 2 described above.

Compound	binding to human peripheral blood mononuclear cells (fluorescence intensity histogram) ([1]; incubated 1 hour at 37° C.)	IFN ([2]; concentration 0.1 μg/ml) [U/ml]	TNF ([2]; concentration 0.1 μg/ml) [pg/mL]	IFN ([2]; concentration 0.3 μg/ml) [U/ml]	TNF ([2]; concentration 0.3 μg/ml) [pg/mL]	IFN ([2]; concentration 1 μg/ml) [U/ml]	TNF ([2]; concentration 1 μg/ml) [pg/mL]	IFN ([2]; concentration 3 μg/ml) [U/ml]	TNF ([2]; concentration 3 μg/ml) [pg/mL]	IFN induction ([3]; concentration 0.014 μg/ml)	TNF induction ([3]; concentration 0.014 μg/ml)	IFN induction ([3]; concentration 0.041 μg/ml)	TNF induction ([3]; concentration 0.041 μg/ml)	IFN induction ([3]; concentration 0.12 μg/ml)	TNF induction ([3]; concentration 0.12 μg/ml)	IFN induction ([3]; concentration 0.37 μg/ml)	TNF induction ([3]; concentration 0.37 μg/ml)	IFN induction ([3]; concentration 1.11 μg/ml)	TNF induction ([3]; concentration 1.11 μg/ml)	IFN induction ([3]; concentration 3.33 μg/ml)	further results
CCOCc1nc2c(N)nc3ccccc3c2n1CCNC(=O)CCCCCNC(=O)CCc1ccc2n1[B-](F)(F)[N+]1=C(C)C=C(C)C1=C2 [Example 1, N-[2-(4-Amino-2-ethoxymethyl-1H-imidazo[4,5-c]quinolin-1-yl)ethyl]-6-[(4,4-difluoro-5,7-dimethyl-4-bora-3a,4a-diaza-s-indacene-3-propionyl)amino]hexanoamide]	binds to human peripheral blood mononuclear cells	554	46	2878	73	421	369	62	869												binding to monocytes compared with other PBMCs ([1]; incubated 1 hour at 37° C., peak area M3 = monocyte population): monocytes bind more effectively than other PBMCs; binding to monocytes ([1]; incubated with human PBMCs at 4° C. for 1 hour): did not show significant binding; IFN ([2]; concentration 0.01 μg/ml): 16 U/ml; TNF ([2]; concentration 0.01 μg/ml): 0 pg/mL; IFN ([2]; concentration 0.03 μg/ml): 47 U/ml; TNF ([2]; concentration 0.03 μg/ml): 42 pg/mL
CCCCc1nc2c(N)nc3ccccc3c2n1CCNC(=S)Nc1ccc(-c2c3ccc(=O)cc-3oc3cc(O)ccc23)c(C(=O)O)c1 [Example 3, 5-{[({2-[4-Amino-2-butyl-1H-imidazo[4,5-c]quinolin-1-yl]ethyl}amino)carbonthioyl]amino}-2-(6-hydroxy-3-oxo-3H-xanthen-9-yl)benzoic Acid]										−	−	−	−	−	−	−	−	−	−	−	TNF induction ([3]; concentration 3.33 μg/ml): −; IFN induction ([3]; concentration 10 μg/ml): +; TNF induction ([3]; concentration 10 μg/ml): −; IFN induction ([3]; concentration 30 μg/ml): +; TNF induction ([3]; concentration 30 μg/ml): +; melting point: > 245 °C
COCCc1nc2c(N)nc3ccccc3c2n1CCCCNC(=S)Nc1ccc(-c2c3ccc(=O)cc-3oc3cc(O)ccc23)c(C(=O)O)c1 [Example 2]										−	−	−	−	−	−	−	−	−	−	−	TNF induction ([3]; concentration 3.33 μg/ml): +; IFN induction ([3]; concentration 10 μg/ml): +; TNF induction ([3]; concentration 10 μg/ml): +; IFN induction ([3]; concentration 30 μg/ml): +; TNF induction ([3]; concentration 30 μg/ml): +; melting point: > 245 °C
CCOCc1nc2c(N)nc3ccccc3c2n1CCN.Cl.Cl.Cl [Unlabeled Intermediate, 2-(4-amino-2-ethoxymethyl-1H-imidazo[4,5-c]quinolin-1-yl)ethaneamine trihydrochloride]		421	0	2878	0	2878	49	81	538												IFN ([2]; concentration 10 μg/ml): 140 U/ml; TNF ([2]; concentration 10 μg/ml): 2640 pg/mL
Cc1cc(C)n2c1C=C1C=CC(CCC(=O)NCCCCCC(=O)ON3C(=O)CCC3=O)=[N+]1[B-]2(F)F [BODIPY fluorophore, 6-((4,4-difluoro-5,7-dimethyl4-bora-3a,4a-diaza-s-indacene-3-propionyl)amino)hexanoic acid, succinimidyl ester, reference compound]	does not																				
